Data on 5 sequences can be found in patent publication US20060094017A1, “Immunogens for hiv vaccine” (priority 2003, published 2006).

The test system of assay [1] is Mab 2G12. Nature of the assay: BIACore (SPR) binding of Mab 2G12 to mimotopes displayed on phage captured by anti-M13 antibody. The note with it: round three phage-displayed mimotope (pIII) captured via anti-M13 on RAMFc CM5 chip; 25 μl Mab 2G12 at 100 μg/ml. Further details: species or system human. The protocol: BIACore confirmation of mimotope binding to Mab 2G12 was determined for four of the identified peptide sequences disclosed in the present application. For the first assay, a batch of individually selected phage was prepared from the transduced E. coli cells described in Example 2. The phage were concentrated by PEG precipitation to be used in the assay. Initially, a murine anti-phage pVIII monoclonal antibody (anti-M13) is captured by a BIACore CM5 chip that is coated with a standard rabbit anti-mouse (Fc) antibody (RAMFc). The anti-M13 antibody captures the chimeric phage selected from the panning procedure described in Example 2. Mab 2G12 is then flowed over the chip in order to describe and confirm binding of the antibody to the captured chimeric phage pIII.
Specifically, RAMFc was first immobilized on the gold surface of the BIACore CM5 chip (Uppsala, Sweden) containing dextran by amine coupling. Twenty-five microliters of anti-M13 antibody (Amersham Pharmacia Biotech, Piscataway, N.J.), at 1 mg/ml, was injected into the flowcell containing the chip at a flow rate of […] and captured by the immobilized RAMFc. The captured anti-M13 was measured in resonance units (RU). After completing the initial control tests of the flowcell, the chip was regenerated by injecting 10 μl of 20 mM HCL, 3 times, into the flowcell. To determine whether Mab 2G12 can detect the mimotopes isolated in the panning procedure described herein, 25 μl of anti-M13 at 1 mg/ml was first injected into the flowcell. Fifty microliters of the round three phage preparation of the mimotope sequence identified by SEQ ID NO:3, WKIPDHGIVVFSWFP, at >1×10^10 phage particles per ml, was injected into the flowcell. This was followed by 25 μl of Mab 2G12 at 100 μg/ml. The amount of Mab 2G12 captured on the chip was subsequently measured in RUs. This procedure was repeated for the following round three mimotopes: RSGHKVWVVSTKESS (SEQ ID NO:1), KCCFAESSRSGTGRY (SEQ ID NO:2) and VLRLMECHFQCVPSL (SEQ ID NO:4). […] Of the four mimotopes tested by this procedure, RSGHKVWVVSTKESS (SEQ ID NO:1) bound Mab 2G12 the tightest at 312 RUs. In comparison, KCCFAESSRSGTGRY (SEQ ID NO:2) bound at 120 RUs, WKIPDHGIVVFSWFP (SEQ ID NO:3) bound at 24 RUs, and VLRLMECHFQCVPSL (SEQ ID NO:4) bound at 17 RUs.
(In general: In SPR one partner is held on a chip, and binding of the other changes the refractive index at the surface.)

The subject of assay [2] is Mab 2G12. Nature of the assay: BIACore (SPR) binding of Mab 2G12 to biotinylated synthetic mimotope peptides on streptavidin chip. The note with it: synthetic biotinylated mimotope peptide (500 μg/ml) on streptavidin chip; 100 μl Mab 2G12 at 0.25 μg/μl, 5 μl/min. Further details: species or system human. The method, then: Surface plasmon resonance was also used to confirm the binding of synthetic mimotope peptides identified from the panning procedure described in Example 2 to Mab 2G12. In this assay, a solution of biotinylated mimotope peptide is injected into a flowcell containing a BIACore chip coated with streptavidin. The biotin-streptavidin interaction immobilizes the synthetic mimotope peptide on the chip surface. Mab 2G12 is then injected into the flowcell to determine if the antibody recognizes and is captured by the bound mimotope. Specifically, the streptavidin BIACore chip was warmed to room temperature for 30 minutes. The chip was then docked and primed 2× with HBS-EP (0.01M HEPES, pH 7.4, 0.15M NaCl, 3 mM EDTA, 0.005% Surfactant P20) and conditioned for three cycles with 1M NaCl/50 mM NaOH. Each synthesized, biotinylated mimotope peptide was diluted 1:2 in HBS (0.01M HEPES, pH 7.4) to a final concentration of 500 μg/ml. Seventy-five microliters of each mimotope peptide was then injected into the flowcell at a flow rate of 5 μl/min. Mab 2G12 was resuspended in sterile water to a concentration of 0.25 μg/μl, and 100 μl of the antibody was injected into the flowcell containing the captured synthetic peptide at a flow rate of 5 μl/min. The captured Mab2G12 was measure in RUs. Of the mimotopes tested by this procedure, the synthetic peptide represented by SEQ ID NO:3, WKIPDHGIVVFSWFP, bound Mab 2G12 the tightest at 1193 RUs. In comparison, RSGHKVWVVSTKESS (SEQ ID NO:1) bound at 117 RUs, VLRLMECHFQCVPSL (SEQ ID NO:4) bound at 133 RUs, and TLKSLPYRAVLGAQA (SEQ ID NO:5) bound at 37 RUs. […] Thus, the mimotope represented by SEQ ID NO:2 binds to Mab 2G12 more efficiently as a multivalent structure (e.g., when within the pIII on the tip of the filamentous phage particle).

As for “KCCFAESSRSGTGRY (Synthetic peptide mimotope) [SEQ ID NO:2]”, the “amount of Mab 2G12 captured on the chip” value in assay [1] came out at 120 RUs. Also, the “captured Mab 2G12” value in assay [2] is listed as “no binding”.
For “RSGHKVWVVSTKESS (Synthetic peptide mimotope) [SEQ ID NO:1]”, in that order: 312 RUs and 117 RUs.
As to “TLKSLPYRAVLGAQA (Synthetic peptide mimotope) [SEQ ID NO:5]”, the “captured Mab 2G12” value in assay [2] stood at 37 RUs.
With “VLRLMECHFQCVPSL (Synthetic peptide mimotope) [SEQ ID NO:4]”, the “amount of Mab 2G12 captured on the chip” value in assay [1] is on record as 17 RUs. In addition, the “captured Mab 2G12” value in assay [2] is 133 RUs.
The corresponding values for “WKIPDHGIVVFSWFP (Synthetic peptide mimotope) [SEQ ID NO:3]” are 24 RUs and 1193 RUs.
